pIC50: −log10 of the molar value.
target: T1, Angiotensin II receptor (Bos taurus, UniProt P25104); test: Inhibitory effect on binding of angiotensin II to angiotensin receptor (125I-AII radioligand binding, membrane fractions); conditions: A II receptor membrane fraction from bovine adrenal cortex, room temperature, one hour, compound 10^-9-3x10^-5 M, read-out: Inhibitory Activity against Binding of Angiotensin II IC50
T1 construct: Angiotensin II receptor membrane fractions were prepared from bovine adrenal cortex; from tissue; host or cells: bovine adrenal cortex membrane fraction
T1 sequence (P25104 1-359): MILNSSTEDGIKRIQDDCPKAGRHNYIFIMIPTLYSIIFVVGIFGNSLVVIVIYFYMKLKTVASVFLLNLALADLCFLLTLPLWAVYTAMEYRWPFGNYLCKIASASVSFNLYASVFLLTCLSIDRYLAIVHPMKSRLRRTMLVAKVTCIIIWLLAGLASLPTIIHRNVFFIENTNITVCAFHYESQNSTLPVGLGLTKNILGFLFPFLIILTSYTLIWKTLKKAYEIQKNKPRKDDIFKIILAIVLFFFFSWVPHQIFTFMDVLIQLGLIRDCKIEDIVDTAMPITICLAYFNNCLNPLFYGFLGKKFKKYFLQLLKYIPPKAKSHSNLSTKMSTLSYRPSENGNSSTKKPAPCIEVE
Description: Inhibitory assay for the binding of angiotensin II to angiotensin receptor was conducted by modifying a method as described by Douglas et al. (Endocrinology, 102, 685-696 (1978)).
Angiotensin II receptor membrane fractions were prepared from bovine adrenal cortex.
The compound (I) of the present invention (10^-9-3x10^-5 M) and […] (^125I-AII) (1.8kBq/50µl) were added to the A II receptor membrane fraction and incubated at room temperature for one hour. The bound and free ^125I-AII were separated by a filter (Whatman GF/B filter) each other. The radioactivity of ^125I-All bound on the receptor was measured.

Structure (SMILES)	pIC50
CCCCc1nc2c(c(=O)n(CC)c(=O)n2CC)n1Cc1ccc(-c2ccccc2-c2nnn[nH]2)cc1 [Compound 31]	6.96
CCCCSc1nc2c(c(=O)n(CC)c(=O)n2CCC)n1Cc1ccc(-c2ccccc2-c2nnn[nH]2)cc1 [Compound 26]	5.70
CCCc1nc2c(c(=O)n(CC)c(=O)n2CCC)n1Cc1ccc(-c2ccccc2-c2nn[nH]n2)cc1 [Compound 21]	6.25
CC(Cc1nc2c(c(=O)n(C)c(=O)n2C)n1Cc1ccc(-c2ccccc2-c2nn[nH]n2)cc1)c1ccccc1 (stereo not shown) [Compound 12]	6.48
CCCCc1nc2c(c(=O)n(CCCC)c(=O)n2CCCC)n1Cc1ccc(-c2ccccc2-c2nnn[nH]2)cc1 [Compound 27]	5.68
CCCCSc1nc2c(c(=O)n(C)c(=O)n2C)n1Cc1ccc(-c2ccccc2C(=O)O)cc1 [Compound 33]	6.55
Cn1c(=O)c2c(nc(CCCCc3ccccc3)n2Cc2ccc(-c3ccccc3-c3nn[nH]n3)cc2)n(C)c1=O [Compound 14]	6.48
CCCc1nc2c(c(=O)n(C)c(=O)n2C)n1Cc1ccc(-c2ccccc2-c2nn[nH]n2)cc1 [Compound 5]	6.77
CCCCSc1nc2c(c(=S)n(C)c(=O)n2C)n1Cc1ccc(-c2ccccc2-c2nn[nH]n2)cc1 [Compound 17]	6.12
CCCCc1nc2c(c(=O)n(CCC)c(=O)n2CCCC)n1Cc1ccc(-c2ccccc2-c2nnn[nH]2)cc1 [Compound 28]	6.72
Cn1c(=O)c2c(nc(C3CCCC3)n2Cc2ccc(-c3ccccc3-c3nn[nH]n3)cc2)n(C)c1=O [Compound 9]	6.03
CCCCSc1nc2c(c(=O)n(C)c(=O)n2C)n1Cc1ccc(-c2ccccc2-c2nnn[nH]2)cc1 [Compound 34]	6.89
CCCCc1nc2c(c(=O)n(CCC)c(=O)n2CCC)n1Cc1ccc(-c2ccccc2-c2nn[nH]n2)cc1 [Compound 23]	5.96
CCCCc1nc2c(c(=O)n(CCCC)c(=O)n2C)n1Cc1ccc(-c2ccccc2-c2nnn[nH]2)cc1 [Compound 29]	6.00
CCCSc1nc2c(c(=S)n(C)c(=O)n2C)n1Cc1ccc(-c2ccccc2-c2nn[nH]n2)cc1 [Compound 19]	5.82
CCCSc1nc2c(c(=O)n(C)c(=S)n2C)n1Cc1ccc(-c2ccccc2-c2nn[nH]n2)cc1 [Compound 20]	5.82
CCCCc1nc2c(c(=O)n(CC)c(=O)n2CCC)n1Cc1ccc(-c2ccccc2-c2nn[nH]n2)cc1 [Compound 22]	6.08
CCCCc1nc2c(c(=O)n(C)c(=O)n2C)n1Cc1ccc(-c2ccccc2-c2nnn[nH]2)cc1 [Compound 1]	6.55
CCOc1nc2c(c(=O)n(C)c(=O)n2C)n1Cc1ccc(-c2ccccc2-c2nnn[nH]2)cc1 [Compound 2, 8-Ethoxy-1,3-dimethyl-7-[[2'-(1 H-tetrazole-5-yl)-biphenyl-4-yl)methyl)xanthine]	7.31
Cn1c(=O)c2c(nc(Cc3ccccc3)n2Cc2ccc(-c3ccccc3-c3nn[nH]n3)cc2)n(C)c1=O [Compound 10]	5.47
Cn1c(=O)c2c(nc(-c3ccccc3)n2Cc2ccc(-c3ccccc3-c3nn[nH]n3)cc2)n(C)c1=O [Compound 7]	7.19
CCOc1nc2c(c(=O)n(CC)c(=O)n2CC)n1Cc1ccc(-c2ccccc2-c2nnn[nH]2)cc1 [Compound 35]	5.96
CC(C)Cc1nc2c(c(=O)n(C)c(=O)n2C)n1Cc1ccc(-c2ccccc2-c2nn[nH]n2)cc1 [Compound 15]	6.82
CCCCCc1nc2c(c(=O)n(C)c(=O)n2C)n1Cc1ccc(-c2ccccc2C(=O)O)cc1 [Compound 4, 7-(2'-Carboxybiphenyl-4-yl)methyl-8-n-pentyl-1,3-dimethylxanthine]	7.21
CCCCc1nc2c(c(=O)n(C)c(=S)n2C)n1Cc1ccc(-c2ccccc2-c2nn[nH]n2)cc1 [Compound 13]	7.31
CCCCSc1nc2c(c(=O)n(CCC)c(=O)n2CCC)n1Cc1ccc(-c2ccccc2-c2nnn[nH]2)cc1 [Compound 25]	6.25
Cn1c(=O)c2c(nc(C3CC3)n2Cc2ccc(-c3ccccc3-c3nn[nH]n3)cc2)n(C)c1=O [Compound 8]	6.22
CCC=CCc1nc2c(c(=O)n(CCC)c(=O)n2CCC)n1Cc1ccc(-c2ccccc2-c2nnn[nH]2)cc1 [Compound 30]	6.42

Source: patent EP0430300A2, “Xanthine derivatives, their production and use” (Takeda Chemical Industries, Ltd., priority 1989, dated 1991)
